Laboratory results reported in patent publication US10342767B2, “Therapy for kinase-dependent malignancies” (CHILDREN'S HOSPITAL MEDICAL CENTER, priority 2011, dated 2019).
“Also recorded” adds a separate entry of the source. Counter-ions that a name gives are not always drawn.

Tests used:
phospho-p38, p-JNK = test: Immunoblot of MAPK signaling in BaF3 and BaF3-BA cells; format: cell-based, mouse; settings: with or without IL-3
Procedure: Western blotting. 4-6 million cells were collected, and whole-cell extracts were prepared using lysis buffer supplemented with a protease-inhibitor cocktail (Roche) and phosphatase-inhibitor cocktail 2 (Sigma-Aldrich), as described previously (Azam, M., Seeliger, M. A., Gray, N. S., Kuriyan, J. & Daley, G. Q. Activation of tyrosine kinases by mutation of the gatekeeper threonine. Nat. Struct. Mol. Biol. 15, 1109-1118 (2008)). The proteins were resolved on 10% SDS-PAGE gels and transferred to nitrocellulose membranes (Bio-Rad). Membranes were blocked in TBST with 5% nonfat milk and probed with appropriate antibodies as indicated. Densitometry was carried out using ImageJ software.

phospho-p38 = test: Pharmacodynamic phospho-p38 analysis in leukemic mice; format: in vivo, mouse; settings: peripheral blood mononuclear cells, 6 h after BCI 10 mg/kg i.p.
Procedure: Pharmacodynamic analysis of Dusp1 and c-Fos targets. Phospho-p38 analysis. Three leukemic mice (8-12 weeks old), which had received transplants of BCR-ABL-expressing Kit+ cells, were injected with BCI (10 mg/kg) by intraperitoneal injection 4 weeks after transplantation. Phospho-p38 levels were quantified in peripheral blood MNCs using the Phosflow kit (BD Biosciences), according to the supplier's instructions. In brief, blood was collected from each mouse before and 6 hours after drug injection. Mononuclear cells were isolated by RBC depletion: RBCs were lysed twice using 4 ml Pharmlyse solution (BD Biosciences) per 100 μl of peripheral blood by mixing and incubated on ice for 5 min. After the second lysis step, cell pellets were washed with 1 ml 2% BSA in PBS followed by fixation using 100 μl of fixation and permeabilization solutions (BD Biosciences) for 20 min at 4° C. in the dark. The pellets were washed with 1 ml of 1×BD Perm/wash buffer. After fixation, the cells were blocked using 300 μl 2% BSA in Perm/wash buffer (BD Biosciences) at room temperature for 20 min. […] Data were acquired by FACS on Fortessa instrument, and the data were analyzed by FlowJo software. The mean fluorescence intensity (MFI) of the IgG control was deducted from the MFI of the experimental samples. […] Quantitative gene-expression analysis of target genes. […]

Dusp1 = test: In vitro BCI-resistance screening of randomly mutagenized Dusp1 in BaF3-BA cells; format: cell-based, mouse
Procedure: To determine the relevant target of BCI more conclusively, we performed in vitro drug-resistant screening to select for BCI-resistant mutations in Dusp1. BaF3-BA cells transfected with an expression library of randomly mutagenized Dusp1 construct were used for the selection of mutations conferring resistance to different concentrations of BCI (FIG. 19D). […] 27 clones that emerged in 1.5 μM of BCI were randomly selected and further analyzed. Dose-response analysis confirmed their resistance to BCI (FIG. 19F). Sequencing of the Dusp1 gene in these clones identified four different substitution mutations (E19R, C24G, V83G, and E112R) and two deletion mutations at the N terminus (Δ2-8 and Δ2-28; FIG. 19G). Because most resistant clones carried two or more mutations, we generated clones with individual mutations for further analysis. […] Furthermore, an unbiased docking of BCI using a structural model of the Dusp1 rhodanese domain identified the putative site to which BCI binds, with a predicted free energy of ΔG=−7.63 (FIG. 18E).
Random mutagenesis and screening of Dusp1 mutants. A Gateway entry clone containing mouse Dusp1 complementary DNA was purchased from the Harvard PalsmiD repository (cat. #MmCD00312825). The Dusp1 coding region was transferred into the retroviral gateway vector pMSCV-Ires-GFP.GW59 by recombination cloning. […] Mutants isolated in the screen were engineered into the pMSCV-Dusp1-Ires-GFP vector, using the QuikChange II XL Site-Directed Mutagenesis Kit (Agilent). The sequence of each point mutation was confirmed by sequence analysis.

HCC827 cells = test: HCC827 cell survival (WST assay); settings: DFC, BCI and erlotinib alone and in combination
[1] = mouse, in vivo; cited from earlier work
[2] = test system: Fos, Dusp1, and Zfp36 expression; test: Real-time qPCR of Fos, Dusp1 and Zfp36 in BaF3-BA cells; format: cell-based, mouse
Procedure: Real-time qPCR analysis. Candidate genes picked by microarray analysis were validated by real time qPCR. Total RNA was isolated as described above. The RNA was first subjected to DNase treatment using DNA-free DNase kit (Ambion, Life technologies). 2 μg of total RNA was converted to cDNA with Superscript III first-strand synthesis kit (Life technologies). qPCR reactions were performed with the human gene-specific primers using the SYBR green method and using a Mastercycler RealPlex2 instrument (Eppendorf). All PCR reactions were performed in triplicate and the real-time data was normalized to β-actin expression.

[3] = test system: CML patient cells (CP1, CP4); test: LTC-IC assay, CML patient samples; format: cell-based, human
Procedure: LTC-IC assay. The LTC-IC assay was performed according to the instruction manual of StemCell Technologies. […] After 24 h, the cells were washed in human long-term culture medium (HLTM; MyeloCult H5100 media containing 1 μM hydrocortisone) and were plated on irradiated MS-5 stromal cells. Cultures were maintained for 5 weeks with weekly half-medium changes. Cells were then harvested, counted, and transferred to methylcellulose-containing media (MethoCult Express, StemCell Technologies) for colony-forming assays. At the end of week 5, adherent and nonadherent cells were isolated and plated in methylcellulose (METHOCULT H4434 classic, stem cell technology) for CFU analysis in triplicate. Plates were incubated at 37° C., and colonies were scored 2 weeks after plating.

K562 = test: Survival of K562 cells treated with imatinib with or without erythropoietin; format: cell-based, human; settings: erythropoietin treatment
[4] = test system: CML CD34+ cells from patient CP4; test: Mouse model of CML with patient-derived CD34+ cells; format: in vivo, human; settings: treatment for 3 weeks; imatinib 75 mg/kg, DFC and BCI 10 mg/kg twice daily i.p.
Procedure: To extend these findings to human cells, we tested the effect of c-FOS and DUSP1 inhibition on the survival of primary CML patient samples (Table 2).
Mouse models of CML with patient-derived cells. 3 million CD34+ cells from CML patient CP4 (described in Table 1) were transplanted into sublethally irradiated 8-week-old NSG mice. 2 weeks after transplantation, leukemic engraftment in bone marrow was determined by FACS using mouse and human specific antibodies against CD45. […] Drugs were diluted in PBS (vehicle) and administered by intraperitoneal injection twice daily. […]

SKMEL28 = SKMEL28 dose response / cell survival (WST assay); format: cell-based; settings: HGF
Procedure: (§1) Cell-proliferation assay. […] The cells were incubated for 60 h.
(§2) Time at 0 hours represents the level of expression without TKI+/−GF. Note that the growth factors induce higher expression of c-FOS in all cell lines and DUSP1 in RT4 at 0 hours, while the addition of both TKI and growth factors induced both c-FOS and DUSP1. […] Note inhibition of c-FOS and DUSP1 is sufficient to kill AU565 cells, while their inhibition in RT4 and SKMEL28 cells restored the TKI sensitivity in the presence of growth factors.

BaF3-BA cells = test: Cell proliferation/survival assay of BaF3 cells expressing BCR-ABL (WST-1); format: cell-based, mouse; settings: inhibitor 500 nM
EGFR = settings: NSCLC patients with activating EGFR mutations; cited from earlier work
RT4 = RT4 dose response / cell survival (WST assay); format: cell-based; settings: EGF
Procedure: as §1, §2

AU565 = AU565 dose response / cell survival (WST assay); format: cell-based; settings: neuregulin 1-NRG1
Procedure: as §1, §2

## O=C1/C(=C/c2ccccc2)C(NC2CCCCC2)c2ccccc21 (stereo not shown) [BCI, (E)-2-benzylidene-3-(cyclohexylamino)-2,3-dihydro-1H-inden-1-one]
phospho-p38, p-JNK; BaF3-BA cells
  phospho-JNK: decreased
phospho-p38, p-JNK; BaF3 and BaF3-BA cells
  phospho-p38 levels: enhanced; also recorded: increased
phospho-p38
  increase in phospho-p38 levels: 4-8 fold
Dusp1; 1 μM BCI
  frequency of resistant clones: 1,200 clones per million cells
Dusp1; 1.5 μM BCI
  frequency of resistant clones: 27 clones per million cells
Dusp1; 2 μM of BCI
  frequency of resistant clones: did not yield any resistant clones
HCC827 cells
  cell survival: sensitized the cells for erlotinib

## COc1cc(/C=C/C(=O)C(=Cc2ccc(F)c(F)c2)C(=O)/C=C/c2ccc(O)c(OC)c2)ccc1O [DFC, difluorinated curcumin]
[1]
  pharmacokinetics relative to curcumin: superior pharmacokinetics

## Cc1ccc(NC(=O)c2ccc(CN3CCN(C)CC3)cc2)cc1Nc1nccc(-c2cccnc2)n1 [Imatinib, Imatinib mesylate]
[2]; imatinib alone
  expression of Fos, Dusp1 and Zfp36: downregulated
[2]; imatinib plus growth factor (IL-3)
  higher expression of Fos, Dusp1 and Zfp36 as compared to BaF3-BA plus imatinib: 4-5 fold
[3]; CP1 cells
  LTC-IC activity as compared to vehicle: increased
[3]; sample CP4
  LTC-IC activity as compared to vehicle: significant decrease
K562
  response to imatinib with erythropoietin: conferred imatinib resistance
[4]
  effect on human leukemic cells in bone marrow: ineffective

## CCCS(=O)(=O)Nc1ccc(F)c(C(=O)c2c[nH]c3ncc(Cl)cc23)c1F [PLX4720]
SKMEL28
  response to PLX4720 in the presence of growth factor: resistance

## Oc1ccc(-c2nc(-c3ccncc3)c(-c3ccc(F)cc3)[nH]2)cc1 [SB202190]
BaF3-BA cells
  imatinib resistance conferred by inhibitor: conferred imatinib resistance

## C#Cc1cccc(Nc2ncnc3cc(OCCOC)c(OCCOC)cc23)c1 [erlotinib]
EGFR
  response rate: approximately 70%

## CS(=O)(=O)CCNCc1ccc(-c2ccc3ncnc(Nc4ccc(OCc5cccc(F)c5)c(Cl)c4)c3c2)o1 [lapatinib]
RT4
  response to lapatinib in the presence of growth factor: resistance
AU565
  response to lapatinib in the presence of growth factor: resistance
